Eight molecules from PubChem BioAssay (NCI) can be followed below.

Some test systems named below: ACHN renal; EKVX NSCLC; HCT-15 colon; HOP-92 NSCLC; M14 melanoma; MALME-3M melanoma; MCF7 breast; MDA-MB-435; MDA-N; MOLT-4 leukemia; NCI-H460 lung; NCI-H522 lung; OVCAR-3 ovarian; PC-3 prostate; SK-MEL-2 melanoma; SK-MEL-5 melanoma; TK-10 renal; UACC-62 melanoma.
Common to all, as to assay: NCI tumour cell line growth inhibition, 48 h

SMILES strings stand for the structures.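 Grown in 96-well plates, cells were treated for 48 hours with each compound at five concentrations. Insufficient inhibition: endpoint recorded as highest concentration tested. TGI denotes the concentration required for complete inhibition of growth.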

On to `Nc1nc(Cl)c(N)c(NCC2(CO)CC(OCc3ccccc3)C2)n1` (centres undefined), for which the TGI in the test with ACHN renal, in the test with EKVX NSCLC, in the test on HCT-15 colon, with HOP-92 NSCLC, with M14 melanoma and in the test on MALME-3M melanoma was greater than 100 µM in each case. The TGI in the test with MCF7 breast, with MDA-MB-435, in the test with MDA-N, in the test with MOLT-4 leukemia, in the test on NCI-H460 lung and in the test with NCI-H522 lung was greater than 100 µM throughout. The TGI with OVCAR-3 ovarian, in the test with PC-3 prostate, with SK-MEL-2 melanoma, in the test with SK-MEL-5 melanoma, in the test with TK-10 renal and with UACC-62 melanoma was greater than 100 µM each time.

For the molecule `O=C1CCC2(CC1CC(Sc1ccccc1)Sc1ccccc1)OCCO2` (centres undefined), the TGI is greater than 100 µM with ACHN renal; greater than 100 µM with EKVX NSCLC; greater than 100 µM in the test with HCT-15 colon; greater than 100 µM in the test with HOP-92 NSCLC; greater than 100 µM with M14 melanoma; 84.7 µM in the test on MALME-3M melanoma. In addition, the TGI is greater than 100 µM with MCF7 breast; greater than 100 µM in the test on MDA-MB-435; greater than 100 µM with MDA-N; 66.3 µM with MOLT-4 leukemia; greater than 100 µM in the test on NCI-H460 lung; 85.4 µM with NCI-H522 lung. Also, the TGI in the test on OVCAR-3 ovarian was greater than 100 µM; in the test on PC-3 prostate, greater than 100 µM; in the test on SK-MEL-2 melanoma, greater than 100 µM; with SK-MEL-5 melanoma, 38 µM; in the test with TK-10 renal it was greater than 100 µM; in the test on UACC-62 melanoma it was greater than 100 µM.

Turning to `CCCN(CCCC(NC(C)=O)C(=O)NCc1ccccc1)C(=O)N(CCCl)N=O` (centres undefined), the TGI was 37.5 µM in the test on ACHN renal; 59 µM in the test on EKVX NSCLC; 42.5 µM in the test with HCT-15 colon; 46.6 µM with HOP-92 NSCLC; 31.7 µM with M14 melanoma; 39.7 µM in the test with MALME-3M melanoma. In addition, the TGI in the test with MCF7 breast was greater than 100 µM; in the test on MDA-MB-435, greater than 100 µM; with MDA-N, greater than 100 µM; in the test with MOLT-4 leukemia it was 28 µM; with NCI-H460 lung it was 23.6 µM; in the test on NCI-H522 lung, 29.2 µM. Besides, the TGI in the test with OVCAR-3 ovarian was 53.3 µM; in the test on PC-3 prostate it was greater than 100 µM; with SK-MEL-2 melanoma, 43.9 µM; in the test on SK-MEL-5 melanoma, 37.8 µM; in the test on TK-10 renal, 83.4 µM; with UACC-62 melanoma it was 12.6 µM.

`CCSc1sc(=Nc2ccc(N=c3sc(C)c(SC)s3)cc2)sc1-c1ccc(C)cc1`: the TGI with ACHN renal, in the test with EKVX NSCLC, with HCT-15 colon, in the test on HOP-92 NSCLC, in the test with M14 melanoma and with MALME-3M melanoma was greater than 100 µM throughout. In addition, the TGI in the test on MCF7 breast, with MDA-MB-435, in the test with MDA-N, with MOLT-4 leukemia, with NCI-H460 lung and with NCI-H522 lung was greater than 100 µM throughout. Further, the TGI in the test with OVCAR-3 ovarian, in the test on PC-3 prostate, with SK-MEL-2 melanoma, in the test with SK-MEL-5 melanoma, in the test with TK-10 renal and with UACC-62 melanoma was greater than 100 µM throughout.

With `COc1ccc2c(CCN)c(C(=O)O)[nH]c2c1`, the TGI with ACHN renal, in the test with EKVX NSCLC, with HCT-15 colon, with HOP-92 NSCLC, with M14 melanoma and in the test with MALME-3M melanoma was greater than 100 µM throughout. Moreover, the TGI in the test with MCF7 breast, with MDA-MB-435, with MDA-N, with MOLT-4 leukemia, in the test on NCI-H460 lung and in the test with NCI-H522 lung was greater than 100 µM in each case. Also, the TGI with OVCAR-3 ovarian, in the test on PC-3 prostate, with SK-MEL-2 melanoma, in the test on SK-MEL-5 melanoma, in the test with TK-10 renal and in the test on UACC-62 melanoma was greater than 100 µM throughout.

`CCCN1C(=O)CC(C)N(Cc2ccccc2Cl)C1=S` (centres undefined): the TGI with ACHN renal was 88.4 µM; in the test with EKVX NSCLC it was 93.7 µM; with HCT-15 colon, greater than 100 µM; in the test with HOP-92 NSCLC, 69.3 µM; in the test with M14 melanoma, 79.9 µM; in the test on MALME-3M melanoma, 56.7 µM. In addition, the TGI in the test on MCF7 breast was 78.4 µM; with MDA-MB-435 it was 65.9 µM; in the test with MDA-N, 60.6 µM; with MOLT-4 leukemia, greater than 100 µM; with NCI-H460 lung, greater than 100 µM; in the test with NCI-H522 lung, 56.6 µM. For the same molecule, the TGI in the test on OVCAR-3 ovarian was determined as 88.8 µM; in the test with PC-3 prostate it was 55.7 µM; with SK-MEL-2 melanoma, 44.1 µM; with SK-MEL-5 melanoma, 33.4 µM; with TK-10 renal, 67.4 µM; in the test on UACC-62 melanoma, 46.3 µM.

For the molecule `S=C(NC1=NCC(CN2CCN(c3ccccc3)CC2)O1)Nc1ccccc1` (centres undefined), the TGI in the test on ACHN renal, in the test with EKVX NSCLC, in the test on HCT-15 colon, in the test on HOP-92 NSCLC, with M14 melanoma and in the test on MALME-3M melanoma was greater than 100 µM throughout. For the same molecule, the TGI in the test with MCF7 breast, in the test with MDA-MB-435, in the test with MDA-N, in the test on MOLT-4 leukemia, in the test with NCI-H460 lung and with NCI-H522 lung was greater than 100 µM throughout. The TGI with OVCAR-3 ovarian, with PC-3 prostate, with SK-MEL-2 melanoma, with SK-MEL-5 melanoma, in the test with TK-10 renal and in the test on UACC-62 melanoma was greater than 100 µM in each case.

As for `CN(CCn1cnc2c1c(=O)n(C)c(=O)n2C)C1CCCCC1`, the TGI in the test with ACHN renal, in the test with EKVX NSCLC, in the test with HCT-15 colon, with HOP-92 NSCLC, in the test on M14 melanoma and in the test on MALME-3M melanoma was greater than 100 µM in each case. Moreover, the TGI in the test on MCF7 breast, with MDA-MB-435, in the test with MDA-N, in the test with MOLT-4 leukemia, in the test with NCI-H460 lung and in the test on NCI-H522 lung was greater than 100 µM throughout. The TGI in the test on OVCAR-3 ovarian, in the test with PC-3 prostate, in the test with SK-MEL-2 melanoma, in the test with SK-MEL-5 melanoma, with TK-10 renal and in the test on UACC-62 melanoma was greater than 100 µM each time.
